Assay results: article PMC9127750, “Structure-based design of CDC42 effector interaction inhibitors for the treatment of cancer” (Cell reports, 2022)
Values joined by “and” are separate entries in the source; they are usually repeats but may differ in a detail not shown here. Equal entries are not always repeated.

Test system: WM3248 melanoma cells, 486 antibodies
Assay: Reverse phase protein arrays (RPPA)
Assay type: cell-based, Human
Source text: Pellets were snap frozen in liquid nitrogen and shipped to MD Anderson Cancer Center core RPPA facility for RPPA analysis (Table S5). Three biological replicates for each sample were generated.
Nomenclatures on the RPPA heatmaps: name_of_antibody.species_of_antibody.status_of_antibody. V - antibody validated; C - validation of antibody in progress; Q - antibody nonspecific; E – under evaluation; antibodies raised in M - mouse, G - goat, R - rabbit, or T - rat.

## CN(C)c1cccc(Nc2cc(-c3ccccc3)nc(C3CCNCC3)n2)c1 [ARN22089, N1,N1-dimethyl-N3-(6-phenyl-2-(piperidin-4-yl)pyrimidin-4-yl)benzene-1,3-diamine]
Level 20 vs 0
  Merlin.R.C Norm_20 Average: 1.326
  Midkine.R.V Norm_20 Average: 0.903
  Mitofusin.1.R.V Norm_20 Average: 0.924
  Mitofusin.2.R.V Norm_20 Average: 0.929
  Mnk1.R.V Norm_20 Average: 0.909
  mTOR.R.V Norm_20 Average: 0.966
  mTOR_pS2448.R.C Norm_20 Average: 0.981
Level 20 vs 0, replicates
  HLA.DQA1.R.V Norm_20: 0.920
  HLA.DR.DP.DQ.DX.R.C Norm_20: 1.294 and 1.162
  HMHA1.R.V Norm_20: 0.981 and 0.880 and 1.188
  HNRNPK.R.V Norm_20: 0.984 and 1.119 and 0.871
  HSP27.M.C Norm_20: 0.670 and 0.856 and 0.906
  HSP27_pS82.R.V Norm_20: 0.842 and 0.885 and 1.155
  HSP60.R.V Norm_20: 1.130 and 0.832 and 1.026
  HSP70.R.C Norm_20: 1.062 and 1.459
  Hexokinase.I.R.C Norm_20: 1.110 and 1.189 and 1.305
  Hexokinase.II.R.V Norm_20: 1.291 and 0.878 and 1.104
  Hif.1αR.C Norm_20: 1.195 and 0.879 and 1.078
  Histone.H3.R.V Norm_20: 1.827 and 15.369 and 0.615
  Histone.H3_pS10.R.V Norm_20: 1.077 and 5.500 and 0.823
  IDO.R.C Norm_20: 0.970 and 0.836
  IGF1R_pY1135_Y1136.R.V Norm_20: 1.013 and 0.925
  IGFBP2.R.V Norm_20: 1.100 and 0.958 and 1.153
  IGFBP3.M.V Norm_20: 0.795 and 0.982
  IGFRb.R.C Norm_20: 1.223 and 1.234
  IL.6.R.C Norm_20: 0.955 (2×) and 1.003
  IMP3.R.C Norm_20: 0.919 and 1.030 and 0.952
  INPP4b.R.C Norm_20: 0.903 and 0.986
  IR.b.R.C Norm_20: 1.018 and 0.967 and 1.220
  IRF.1.R.V Norm_20: 0.991 and 0.831 and 1.052
  IRF.3.R.V Norm_20: 0.860 and 0.878 and 0.910
  IRS1.R.V Norm_20: 1.064 and 1.027 and 1.060
  IRS2.R.C Norm_20: 1.529 and 1.065
  JAB1.M.C Norm_20: 0.904 and 0.945 and 1.061
  JNK2.R.V Norm_20: 0.750 and 1.506
  JNK_pT183_Y185.R.C Norm_20: 1.059 and 0.941 and 1.008
  Jagged1.R.V Norm_20: 1.035 and 0.964 and 1.085
  Jak2.R.V Norm_20: 1.132 and 0.972 and 1.009
  KAP1.R.V Norm_20: 1.259 and 0.970 and 1.549
  KEAP1.R.V Norm_20: 1.169 and 0.932 and 0.897
  LAD1.R.V Norm_20: 0.881 and 0.761 and 1.249
  LC3A.B.R.C Norm_20: 1.429 and 1.134 and 1.161
  LCN2.R.V Norm_20: 2.531 and 1.008 and 1.326
  LDHA.R.C Norm_20: 0.857 and 1.499 and 2.319
  LRP6_pS1490.R.V Norm_20: 1.001
  Lasu1.R.V Norm_20: 1.199 and 1.294
  Lck.R.V Norm_20: 1.370 and 1.163 and 1.379
  Lyn.R.V Norm_20: 0.892 and 1.140 and 1.052
  MACC1.R.V Norm_20: 0.920 and 0.933
  MAPK_pT202_Y204.R.C Norm_20: 0.833 and 0.402 and 0.466
  MCT4.R.V Norm_20: 1.030 and 0.799 and 1.149
  MDM2_pS166.R.V Norm_20: 1.426 and 1.478 and 1.290
  MEK1.R.V Norm_20: 1.117 and 2.580
  MEK1_pS217_S221.R.V Norm_20: 0.743 and 0.841 and 1.347
  MEK2.R.V Norm_20: 0.956 and 1.186
  MERIT40.R.C Norm_20: 0.841 and 0.749 and 1.150
  MERIT40_pS29.R.V Norm_20: 0.968 and 0.879 and 1.231
  METTL3.R.V Norm_20: 1.164 and 1.324 and 1.250
  MIF.R.C Norm_20: 0.869 and 0.900 and 0.906
  MIG6.R.V Norm_20: 0.893 and 0.926 and 0.901
  MITF.R.V Norm_20: 1.001 and 1.191 and 1.081
  MLH1.M.V Norm_20: 0.708 and 0.840 and 1.119
  MLKL.R.V Norm_20: 0.758 and 0.733
  MMP2.R.V Norm_20: 0.895 and 0.974 and 0.934
  MMP14.R.V Norm_20: 1.924 and 1.667 and 1.374
  MR1.M.C Norm_20: 0.871 and 1.118 and 0.973
  MRAP.R.C Norm_20: 1.035 and 1.214 and 1.082
  MSH2.R.C Norm_20: 0.839 and 0.919 and 1.059
  MSH6.R.C Norm_20: 1.343 and 1.387 and 1.258
  MSI2.R.C Norm_20: 1.362 and 1.019
  MTCO1.M.V Norm_20: 1.305 and 0.956 and 1.145
  MTSS1.M.C Norm_20: 0.841 and 1.006 and 0.964
  Mcl.1.R.V Norm_20: 0.748 and 0.609 and 0.905
  MelanA.R.C Norm_20: 1.030 and 0.993 and 1.051
  Melanoma.gp100.R.C Norm_20: 1.080 and 0.890
  Merlin.R.C Norm_20: 1.344 and 1.329 and 1.306
  Midkine.R.V Norm_20: 0.858 and 0.901
  Mitofusin.1.R.V Norm_20: 0.931 and 0.783 and 1.058
  Mitofusin.2.R.V Norm_20: 0.808 and 0.772 and 1.206
  Mnk1.R.V Norm_20: 0.936 and 0.820 and 0.972
  mTOR.R.V Norm_20: 0.878 and 0.940 and 1.079
  mTOR_pS2448.R.C Norm_20: 0.856 and 0.896 and 1.190
